Among the data in BindingDB's records for doi:10.1111/cbdd.12121 (University of California San Diego, 2013) are IC50 values, retold here.

For the test, the target named is T1, Farnesyl pyrophosphate synthase (Homo sapiens, UniProt P14324).
T1 sequence (P14324 whole entry): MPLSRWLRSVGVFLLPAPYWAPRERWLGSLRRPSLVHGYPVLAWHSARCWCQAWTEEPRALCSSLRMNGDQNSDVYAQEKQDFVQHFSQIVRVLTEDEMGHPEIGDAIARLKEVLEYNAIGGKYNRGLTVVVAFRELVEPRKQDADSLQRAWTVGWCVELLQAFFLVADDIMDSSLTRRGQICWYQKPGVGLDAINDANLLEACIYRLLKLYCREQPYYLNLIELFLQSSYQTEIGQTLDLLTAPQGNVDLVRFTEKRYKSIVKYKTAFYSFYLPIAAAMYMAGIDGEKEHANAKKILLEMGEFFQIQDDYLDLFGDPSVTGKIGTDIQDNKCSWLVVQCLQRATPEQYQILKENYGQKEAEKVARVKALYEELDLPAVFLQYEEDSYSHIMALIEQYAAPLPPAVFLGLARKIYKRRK
The test can be described thus: Inhibition Assay. The conditions noted are these: pH 7.4; 25 °C. From the text: Human FPPS was expressed and purified and inhibition assays carried out as described previously.
Usually IC50 stands for the concentration needed to halve the response being measured. A lower IC50 goes with greater potency in that assay. For the molecule `O=C(Nc1cccc(C2=NCCN2)c1)c1ccc(C(=O)Nc2cccc(C3=NCCN3)c2)cc1` [35839, 19], the IC50 was determined as 13.7 µM.

For the molecule `O=C(Nc1ccccc1C1=NCCN1)c1ccc(C(=O)Nc2ccccc2C2=NCCN2)cc1` [35844, 17], it took 7 µM to reach half-maximal inhibition (IC50).

On to `O=C(Nc1cccc(C2=NCCN2)c1)c1ccc(-c2ccc(C(=O)Nc3cccc(C4=NCCN4)c3)cc2)cc1` [50460, 14], for which half-maximal inhibition (IC50) was put at 1.8 µM.

Turning to `Nc1cc(C(=O)Nc2cccc(C3=NCCN3)c2)ccc1C(=O)Nc1cccc(C2=NCCN2)c1` [50464, 21], the 50% inhibitory concentration (IC50) amounted to 21 µM.

Consider `Nc1cc(C(=O)Nc2ccc(C3=NCCN3)cc2)ccc1C(=O)Nc1ccc(C2=NCCN2)cc1` [50469, 20], for which the midpoint of inhibition, the IC50, lay at 20.3 µM.

For `O=C(Nc1ccc(C2=NCCN2)cc1)c1cccc(C(=O)Nc2ccc(C3=NCCN3)cc2)c1` [53212, 15], the half-maximal inhibitory concentration (IC50) was determined as 1.9 µM.

`O=C(Nc1ccc(C2=NCCN2)cc1)c1ccc(C(=O)Nc2ccc(C3=NCCN3)cc2)c([NH+]([O-])O)c1` (stereo unspecified) [60340, 13] returned an IC50 of 109 µM.

Turning to `CC1CNC(c2ccc(NC(=O)c3ccc(C(=O)Nc4ccc(C5=NC(C)CN5)cc4)c(N)c3)cc2)=N1` (stereo unspecified) [66761, 16], the IC50 is 2.5 µM.

`Nc1c(C(=O)Nc2ccc(C3=NCCN3)cc2)cccc1C(=O)Nc1ccc(C2=NCCN2)cc1` [72564, 22] had an IC50 of 22.3 µM.

The molecule `O=C(Nc1ccc(C2=NCCN2)c(O)c1)c1ccc(C(=O)Nc2ccc(C3=NCCN3)c(O)c2)cc1` [76527, 23] had a concentration for half-maximal inhibition (IC50) of 35 µM.

On to `NC(=O)c1cc(NC(=O)c2ccc(C(=O)Nc3cc(C(N)=O)cc(C4=NCCN4)c3)cc2)cc(C2=NCCN2)c1` [100873, 18], for which it took 10.7 µM to reach half-maximal inhibition (IC50).
